Test results taken from patent US5965701A, “Kappa receptor opioid peptides” (priority 1997, dated 1999).
“And” between values parts separate entries of the source, which are not always exact repeats. Equal values may be shown once. Where a SMILES comes first, the peptide text is derived from it. [ ]: non-standard residue; d: D form. The star is where a group is joined. dPhe(3,4-Cl2) = N[C@H](Cc1ccc(Cl)c(Cl)c1)C(=O)O; dPhe(4-CH2NH2) = NCc1ccc(C[C@@H](N)C(=O)O)cc1; dPhe(4-Cl) = N[C@H](Cc1ccc(Cl)cc1)C(=O)O; dPhe(4-F) = N[C@H](Cc1ccc(F)cc1)C(=O)O; d2Nal = N[C@H](Cc1ccc2ccccc2c1)C(=O)O; NH(thiazol-2-yl) = c1csc(N*)n1; d2Thi = N[C@H](Cc1cccs1)C(=O)O; NH(3-picolyl) = c1cncc(CN*)c1; NH(4-picolyl) = c1cc(CN*)ccn1; dNle = CCCC[C@@H](N)C(=O)O; Morpholide = C1CN(*)CCO1; Piperidide = C1CCN(*)CC1; NHCH2CH2OH = OCCN*; X2 = OC1CCN(*)CC1; X1 = C1CN(*)CCS1; NHBu = CCCCN*

Key:
[1] = target: T1, cloned human kappa (hKOR) receptor (Homo sapiens, UniProt P41145); test: biochemical; assay type: binding; settings: for μ/κ Ratio (binding affinity for KOR versus MOR): Ki MOR / Ki KOR; for Ki: read-out: Ki KOR
T1 construct: expressed in transfected cells; host or cells: HN9.10 (mouse hippocampal neuroblastoma), stably transfected

[2] = target: T2, cloned human mu opioid (hMOR) receptor (Homo sapiens, UniProt P35372); test: Competition binding at cloned hMOR, displacement of 3H-DAMGO; settings: hMOR stably expressed in HN.9.10 cells, read-out: Ki MOR
T2 construct: expressed in transfected cells; host or cells: HN9.10 (mouse hippocampal neuroblastoma), stably transfected

[3] = tested on: conscious male ICR mice; test: Mouse acetic acid writhing test (WT); assay type: in vivo; settings: for WT-ED50: i.v., 5 minutes before acetic acid i.p., writhes over 15 minutes; for % Antinociception 1 hr / % Antinociception 2 hr: submaximal effective dose i.v., percentage of the activity found at -5 min; for % Antinociception 1 hr: 60 min pretreatment; for % Antinociception 2 hr: 120 min pretreatment
Experimental: Selected peptides that are identified in Tables A-G have been further specifically subjected to in vivo testing for determination of duration of action of their opioid properties, and the results are reported in Table H hereinafter. The peptide numbers correspond to those in the earlier tables and the figures with regard to μ/K ratio are simply carried over for reference purposes. The in vivo testing is carried out using a mouse writhing test (WT) that is well-suited for determining the length of duration of antinociceptive biological activity. This test is described in detail in an article by G. A. Bentley et al., Br. J. Phamac., 73:325-332, 1981, and it employs conscious male ICR mice which are purchased from Harlan and which weigh between 20 and 30 grams. The mice are fasted for 12 to 16 hours prior to beginning the test. The nociceptive behavior, i.e. writhing, to be monitored is induced by the intraperitoneal (i.p.) administration of dilute acetic acid. 10 milliliters of 0.6% aqueous acetic acid is used per kg of body weight. Writhing is scored during the 15 minutes following acetic acid administration. In a first step, compounds are tested at 3 to 4 increasing doses, given by intravenous route, and at one unique pretreatment time (-5 minutes before acetic acid injection). […] In a second step, this submaximal effective dose for each specific peptide is administered at various pretreatment times (i.e. -5 minutes, -60 minutes, -120 minutes and -180 minutes) prior to the administration of the acetic acid in order to determine the duration of action. Throughout the test, a control group of mice are used which are administered only the vehicle without the candidate peptide. The number of writhes are counted over a 15-minute period, starting from the time of acetic acid injection, and bioactivity, i.e. antinociception, is expressed as a percentage, and is calculated as follows:
100×(writhes in control group-writhes in treated group)/writhes in
Values higher than 100% indicate greater antinociception than at the beginning of the experiment. It is felt that the opioid peptide should be effective to reduce writhing by at least about 25% at a time of 1 hour to be considered to have long duration of in vivo action.
In addition to using this test to determine duration of antinociceptive activity, it is also used to measure the in vivo biopotency (short term) of the peptide. This value is given in the table under the heading WT-ED50 in milligrams per kg of body weight. The value is a measure of the dosage necessary to reduce the number of writhes in the mouse being tested by 50% (as compared to a control mouse) over a period of 15 minutes.

T2 sequence (P35372 whole entry): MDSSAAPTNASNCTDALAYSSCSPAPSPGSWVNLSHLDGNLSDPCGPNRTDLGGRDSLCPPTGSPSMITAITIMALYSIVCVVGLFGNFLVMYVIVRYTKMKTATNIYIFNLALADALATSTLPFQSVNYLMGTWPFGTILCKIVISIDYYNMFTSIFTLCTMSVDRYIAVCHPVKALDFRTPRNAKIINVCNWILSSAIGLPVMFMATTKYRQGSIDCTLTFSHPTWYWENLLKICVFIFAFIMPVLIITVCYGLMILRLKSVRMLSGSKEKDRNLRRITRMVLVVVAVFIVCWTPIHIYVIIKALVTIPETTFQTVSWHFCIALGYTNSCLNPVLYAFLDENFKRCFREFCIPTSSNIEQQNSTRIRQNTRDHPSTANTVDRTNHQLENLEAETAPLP
T1 sequence (P41145 whole entry): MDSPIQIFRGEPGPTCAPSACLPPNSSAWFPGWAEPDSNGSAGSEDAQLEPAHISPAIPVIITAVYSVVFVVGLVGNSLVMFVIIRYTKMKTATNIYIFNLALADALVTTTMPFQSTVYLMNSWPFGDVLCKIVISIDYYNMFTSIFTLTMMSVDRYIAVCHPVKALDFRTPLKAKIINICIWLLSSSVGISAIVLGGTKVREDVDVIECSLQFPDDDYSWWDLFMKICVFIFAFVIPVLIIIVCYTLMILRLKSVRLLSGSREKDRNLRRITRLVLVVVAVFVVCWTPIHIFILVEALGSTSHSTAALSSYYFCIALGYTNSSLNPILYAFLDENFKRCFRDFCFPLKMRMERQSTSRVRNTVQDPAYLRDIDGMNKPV

Compound	μ/κ Ratio (binding affinity for KOR versus MOR) [1]	Ki [1]	Ki [2]	WT-ED50 [3]	% Antinociception 1 hr [3]	% Antinociception 2 hr [3]
CCCC[C@@H](NC(=O)[C@@H](Cc1ccccc1)NC(=O)[C@H](N)Cc1ccccc1)C(=O)N[C@H](CCCNC(=N)N)C(=O)NC [Peptide 2, H-D-Phe-D-Phe-D-Nle-D-Arg-NHMe] (H-[dF][dF][dNle][dR]-NHMe)	60,000	0.06 nM	3620 nM	0.14 mg/kg	70.5%	29.8%
CCCCNC(=O)[C@@H](CCCNC(=N)N)NC(=O)[C@@H](CCCC)NC(=O)[C@@H](Cc1ccccc1)NC(=O)[C@H](N)Cc1ccccc1 [Peptide 4, H-D-Phe-D-Phe-D-Nle-D-Arg-NHBu] (H-[dF][dF][dNle][dR]-NHBu)	7,200	0.19 nM	1370 nM	0.3 mg/kg and 0.30 mg/kg	49.3%	–
CCCC[C@@H](NC(=O)[C@@H](Cc1ccccc1)NC(=O)[C@H](N)Cc1ccccc1)C(=O)N[C@H](CCCNC(=N)N)C(=O)NCCO [Peptide 9, H-D-Phe-D-Phe-D-Nle-D-Arg-NHhEt] (H-[dF][dF][dNle][dR]-NHCH2CH2OH)	2,500	0.4 nM	1010 nM	0.03 mg/kg	72.5%	39.5%
CCCC[C@@H](NC(=O)[C@@H](Cc1ccccc1)NC(=O)[C@H](N)Cc1ccccc1)C(=O)N[C@H](CCCNC(=N)N)C(=O)N1CCSCC1 [Peptide 10, H-D-Phe-D-Phe-D-Nle-D-Arg-Tmo] (H-[dF][dF][dNle][dR]-X1)	25,000	0.09 nM	2260 nM	0.067 mg/kg and 0.07 mg/kg	81.6%	47.5%
CCCC[C@@H](NC(=O)[C@@H](Cc1ccccc1)NC(=O)[C@H](N)Cc1ccccc1)C(=O)N[C@H](CCCNC(=N)N)C(=O)N1CCC(O)CC1 [Peptide 11, H-D-Phe-D-Phe-D-Nle-D-Arg-4-HyP] (H-[dF][dF][dNle][dR]-X2)	62,000	0.06 nM	3700 nM	0.073 mg/kg and 0.07 mg/kg	61.8%	36.9%
CCCC[C@@H](NC(=O)[C@@H](Cc1ccccc1)NC(=O)[C@H](N)Cc1ccccc1)C(=O)N[C@H](CCCNC(=N)N)C(=O)N1CCCCC1 [Peptide 12, H-D-Phe-D-Phe-D-Nle-D-Arg-Pip] (H-[dF][dF][dNle][dR]-Piperidide)	7,000	0.15 nM	1050 nM	0.07 mg/kg	60.5%	53.6%
CCCC[C@@H](NC(=O)[C@@H](Cc1ccccc1)NC(=O)[C@H](N)Cc1ccccc1)C(=O)N[C@H](CCCNC(=N)N)C(=O)Nc1nccs1 [Peptide 13, H-D-Phe-D-Phe-D-Nle-D-Arg-NH(2-Tzl)] (H-[dF][dF][dNle][dR]-{NH(thiazol-2-yl)})	2,700	0.59 nM	1590 nM	0.44 mg/kg	30.7%	–
CCCC[C@@H](NC(=O)[C@@H](Cc1ccccc1)NC(=O)[C@H](N)Cc1ccccc1)C(=O)N[C@H](CCCNC(=N)N)C(=O)NCc1cccnc1 [Peptide 54, H-D-Phe-D-Phe-D-Nle-D-Arg-NH(3Pic)] (H-[dF][dF][dNle][dR]-{NH(3-picolyl)})	3,100	0.39 nM	1220 nM	–	–	–
CCCC[C@@H](NC(=O)[C@@H](Cc1ccccc1)NC(=O)[C@H](N)Cc1ccccc1)C(=O)N[C@H](Cc1ccc(CN)cc1)C(=O)NCC [Peptide 55, H-D-Phe-D-Phe-D-Nle-D-Amf-NHEt] (H-[dF][dF][dNle][dPhe(4-CH2NH2)]-NHEt)	12,500	0.14 nM	1750 nM	–	–	–
CC(C)C[C@@H](NC(=O)[C@@H](Cc1ccc(Cl)cc1)NC(=O)[C@H](N)Cc1cccs1)C(=O)N[C@H](CCCNC(=N)N)C(=O)N1CCOCC1 [Peptide 59, H-D-Ala(2Thi)-D-4Cpa-D-Leu-D-Arg-Mor] (H-[d2Thi][dPhe(4-Cl)][dL][dR]-Morpholide)	–	0.25 nM	3360 nM	–	–	–
CC(C)C[C@@H](NC(=O)[C@@H](Cc1ccc(Cl)c(Cl)c1)NC(=O)[C@H](N)Cc1cccs1)C(=O)N[C@H](CCCNC(=N)N)C(=O)N1CCOCC1 [Peptide 61, H-D-Ala(2Thi)-D-3,4Cpa-D-Leu-D-Arg-Mor] (H-[d2Thi][dPhe(3,4-Cl2)][dL][dR]-Morpholide)	10,400	0.15 nM	1560 nM	–	–	–
CC(C)C[C@@H](NC(=O)[C@@H](Cc1ccc2ccccc2c1)NC(=O)[C@H](N)Cc1ccc(F)cc1)C(=O)N[C@H](CCCNC(=N)N)C(=O)N1CCOCC1 [Peptide 62, H-D-4Fpa-D-2Nal-D-Leu-D-Arg-Mor] (H-[dPhe(4-F)][d2Nal][dL][dR]-Morpholide)	3,500	0.33 nM	1140 nM	–	–	–
CC(C)C[C@@H](NC(=O)[C@@H](Cc1ccc(Cl)cc1)NC(=O)[C@H](N)Cc1cccs1)C(=O)N[C@H](CCCNC(=N)N)C(=O)NCc1ccncc1 [Peptide 64, H-D-Ala(2Thi)-D-4Cpa-D-Leu-D-Arg-NH(4Pic)] (H-[d2Thi][dPhe(4-Cl)][dL][dR]-{NH(4-picolyl)})	–	0.31 nM	2380 nM	–	–	–
CC(C)C[C@@H](NC(=O)[C@@H](Cc1ccc(Cl)cc1)NC(=O)[C@H](N)Cc1ccc(F)cc1)C(=O)N[C@H](CCCNC(=N)N)C(=O)N1CCOCC1 [Peptide 65, H-D-4Fpa-D-4Cpa-D-Leu-D-Arg-Mor] (H-[dPhe(4-F)][dPhe(4-Cl)][dL][dR]-Morpholide)	–	0.17 nM	1900 nM	–	–	–
H-D-CMP-D-Phe-D-Nle-D-Arg-NH(4Pic) [Peptide 43]	2,500	–	–	–	–	–
H-D-Phe-D-Phe-D-Acp-D-Arg-NH(4Pic) [Peptide 44]	8,200	–	–	–	–	–
H-D-Phe-D-Phe-D-CML-D-Oro-Mor [Peptide 46]	14,000	–	–	–	–	–
H-D-Phe-D-Phe-D-Hle-D-Arg-NH(4Pic) [Peptide 45]	11,000	–	–	–	–	–
H-D-Phe-D-Phe-D-Lcu-D-Dbu-Mor [Peptide 53]	85,000	–	–	–	–	–
H-D-Phe-D-Phe-D-Lcu-D-Dbu-NH(4Pic) [Peptide 52]	92,000	–	–	–	–	–
H-D-Phe-D-Phe-D-Lcu-D-Lys-Mor [Peptide 49]	92,000	–	–	–	–	–
H-D-Phe-D-Phe-D-Lcu-D-Lys-NH(4Pic) [Peptide 47]	30,000	–	–	–	–	–
H-D-Phe-D-Phe-D-Lcu-D-Lys-NHPr [Peptide 48]	18,000	–	–	–	–	–
H-D-Phe-D-Phe-D-Nle-D-Arg-Ecp [Peptide 42]	27,000	–	–	0.06 mg/kg	45.3%	29.4%
H-D-Phe-D-Phe-D-Nle-D-Arg-NH-4-Ahz [Peptide 41]	12,000	–	–	–	–	–
H-D-Phe-D-Phe-D-Nle-D-Arg-NH-4Nhz [Peptide 40]	3,800	–	–	–	–	–
H-D-Phe-D-Phe-D-Nle-D-Har-Mor [Peptide 51]	12,000	–	–	–	–	–
H-D-Phe-D-Phe-D-Nle-D-Har-NH(4Pic) [Peptide 50]	9,300	–	–	–	–	–
